In data set [1] the test system is NCI panel of 58 human tumour cell lines. The experiment in a line: NCI in vitro single-dose antiproliferative assay, panel of 58 tumour cell lines. It is filed as cell-based. To be noted: single concentration of 10 μM, read-out: cell inhibition (mean % growth inhibition, GI). The procedure: (§1) The designed isatin derivatives 6a-i, 11a-c and 12a-c were examined for in vitro antitumor activity on NCI panel involving 58 distinct human tumour cell lines covering nine distinct types of cancer, at single concentration of 10 μM (supplementary file). […] Based on the findings, we concluded that none of compounds 6a, 6c, or 11a were able to increase cell inhibition by more than 20%. And by looking at the mean growth inhibition of the other compounds on each cancer, we discovered that, in addition to CNS cancer in compound 11c and leukaemia in compounds 12b and 12c, all the compounds had the strongest mean growth inhibition on breast cancer cell lines.
(§2) The supplementary data included descriptions of every experimental technique.
(§3) NCI-60 cancer cell lines screening
(§4) Primary anticancer assay was performed on a panel of sixty human tumour cell lines derived from nine neoplastic diseases, in accordance with the protocol of the Drug Evaluation Branch, National Cancer Institute, Bethesda, Maryland, USA. Tested compounds were added to the cell culture at a single concentration ([…]) and the cultures were incubated for 48 h. End point determinations were made with a protein binding dye, sulforhodamine B (SRB). Results for each tested compound were reported as the percent of growth of treated cells when compared to untreated control cells. The percentage growth was evaluated spectrophotometrically versus controls not treated with test agents 1. […]

The subject of data set [2] is T47D cells. The experiment in a line: NCI in vitro single-dose cellular antiproliferative assay, T47D cells. To be noted: Homo sapiens; T47D breast cancer cells, single concentration of 10 μM; read-out: GI% (growth inhibition). The format is cell-based. As for the experimental part:
as §1, §2, §3, §4

A further data set addresses T1, VEGFR-2 (Homo sapiens, UniProt P35968).
T1 construct: purchased BioAssay Systems EKIN-400
The experiment in a line: VEGFR-2 inhibition assay (HTRF). It is filed as biochemical. To be noted: for IC50: mean ± SD of triplicate, read-out: VEGFR-2 IC50 ± S.D. A general note: Time-resolved FRET reads energy transfer from a long-lived donor to a nearby acceptor.

Another data set has as its target T2, CA I (Homo sapiens, UniProt P00915).
T2 construct: made in house
Nature of the data set: Carbonic anhydrase inhibition, stopped-flow CO2 hydration, CA I. The format is biochemical. The conditions noted are these: stopped flow assay, mean of triplicate assays.

For data set [3], the target named is T3, CA IX (Homo sapiens, UniProt Q16790).
T3 construct: made in house
Nature of the data set: Carbonic anhydrase inhibition, stopped-flow CO2 hydration, CA IX. The format is biochemical. To be noted: stopped flow assay, mean of triplicate assays.

The target in another data set is CA II (Homo sapiens, UniProt P00918). The experiment in a line: biochemical.
For data set [4], the system named is T47D cells. Nature of the data set: In vitro cytotoxicity against T47D (sulforhodamine B colorimetric test). The conditions noted are these: Homo sapiens, 72 h, read-out: IC50 ± S.D. T47D.
Protocol: Doxorubicin was set as reference in this assay.
The cytotoxic efficacy of the target compounds against T47D cells was determined, using the SRB colorimetric technique, as previously reported. Briefly, exponentially growing cells were trypsinized, counted and seeded at the appropriate densities (5000 cells/100 μL/ well) into 96-well microtiter plates.
Then, the cells were exposed to the tested compounds at the desired concentrations (0.01, 0.1, 1, 10, and 100 μM) or to 1% dimethyl sulfoxide (DMSO) for 72 h. At the end of the treatment period, the media were removed, and the cells were fixed with 10% trichloroacetic acid at 4 °C for 1 h. Following, the cells were washed with tap water four times and incubated with SRB 0.4% for 30 min. Excess dye was removed by washing repeatedly with 1% (vol/vol) acetic acid.
The protein-bound dye was dissolved in 10 mM Tris base solution for (optical density) OD determination at 510 nm using a Spectra Max plus Microplate Reader (Molecular Devices, CA).
Cell viability was expressed relative to the untreated control cells 2, 3.
Data set [5] concerns T47D cells. Nature of the data set: Cell cycle distribution analysis by flow cytometry. The format is cell-based, human. To be noted: 10 μM, 24 h. As for the experimental part:
DMSO (control) or compounds 11b and 12b were applied to T47D cells, and flow cytometry was used to determine the DNA concentration. Figure 3 presents the findings. […]
μM of compounds 11b and 12b.
(§5) and fixed for 12 h. […] Then, the cells
Cell cycle analysis and apoptosis were
experiment has been carried out three times. […]

Data set [6] deals with T47D cells. Nature of the data set: Annexin V-FITC/PI apoptosis assay. To be noted: for Early apoptosis / Late apoptosis: 24 h, annexin V-FITC/PI; for increase of overall apoptosis in comparison to the control: versus untreated control. It is filed as cell-based, human.
Text: To explore link between growth suppression activity of compounds 11b and 12b with initiation of apoptosis indicated by rising population of sub-G1 in treated T47D cell lines, the Annexin V-FITC/PI double labelling (AV/PI) apoptosis assay was done. The outcomes of the experiment are shown in Figure 4, showing that compounds 11b and 12b caused T47D cell lines to undergo early and late apoptosis. In fact, % of apoptotic cells amplified from 0.41% at early and 0.22% at late apoptosis in T47D cells that had not been treated to 31.0% of early and 12.07% of late apoptosis in T47D cell that had been treated with compound 11b and to 23.5% at early and 9.4% at late apoptosis of T47D cells that had been treated with compound 12b. According to these findings, compounds 11b and 12b increased the overall apoptosis of T47D cells by roughly 19 and 16.2 times, respectively, in comparison to the control.
The supplementary data included descriptions of every experimental technique. […]
μM of compounds 11b and 12b. […]
as §5
Cell cycle analysis and apoptosis were […]
experiment has been carried out three times.
Annexin V-FITC apoptosis assay […]
washed with cold phosphate-buffer saline (PBS). Cells were then stained with Annexin V-FITC […]
The samples were analyzed using the flow cytometer 8, 9.

The target of data set [7] is CA IX. Also on record: method as in PMID 30445264. To be noted: cancer-related CA IX isoform; cited from earlier work.

T1 sequence (P35968 20-1356): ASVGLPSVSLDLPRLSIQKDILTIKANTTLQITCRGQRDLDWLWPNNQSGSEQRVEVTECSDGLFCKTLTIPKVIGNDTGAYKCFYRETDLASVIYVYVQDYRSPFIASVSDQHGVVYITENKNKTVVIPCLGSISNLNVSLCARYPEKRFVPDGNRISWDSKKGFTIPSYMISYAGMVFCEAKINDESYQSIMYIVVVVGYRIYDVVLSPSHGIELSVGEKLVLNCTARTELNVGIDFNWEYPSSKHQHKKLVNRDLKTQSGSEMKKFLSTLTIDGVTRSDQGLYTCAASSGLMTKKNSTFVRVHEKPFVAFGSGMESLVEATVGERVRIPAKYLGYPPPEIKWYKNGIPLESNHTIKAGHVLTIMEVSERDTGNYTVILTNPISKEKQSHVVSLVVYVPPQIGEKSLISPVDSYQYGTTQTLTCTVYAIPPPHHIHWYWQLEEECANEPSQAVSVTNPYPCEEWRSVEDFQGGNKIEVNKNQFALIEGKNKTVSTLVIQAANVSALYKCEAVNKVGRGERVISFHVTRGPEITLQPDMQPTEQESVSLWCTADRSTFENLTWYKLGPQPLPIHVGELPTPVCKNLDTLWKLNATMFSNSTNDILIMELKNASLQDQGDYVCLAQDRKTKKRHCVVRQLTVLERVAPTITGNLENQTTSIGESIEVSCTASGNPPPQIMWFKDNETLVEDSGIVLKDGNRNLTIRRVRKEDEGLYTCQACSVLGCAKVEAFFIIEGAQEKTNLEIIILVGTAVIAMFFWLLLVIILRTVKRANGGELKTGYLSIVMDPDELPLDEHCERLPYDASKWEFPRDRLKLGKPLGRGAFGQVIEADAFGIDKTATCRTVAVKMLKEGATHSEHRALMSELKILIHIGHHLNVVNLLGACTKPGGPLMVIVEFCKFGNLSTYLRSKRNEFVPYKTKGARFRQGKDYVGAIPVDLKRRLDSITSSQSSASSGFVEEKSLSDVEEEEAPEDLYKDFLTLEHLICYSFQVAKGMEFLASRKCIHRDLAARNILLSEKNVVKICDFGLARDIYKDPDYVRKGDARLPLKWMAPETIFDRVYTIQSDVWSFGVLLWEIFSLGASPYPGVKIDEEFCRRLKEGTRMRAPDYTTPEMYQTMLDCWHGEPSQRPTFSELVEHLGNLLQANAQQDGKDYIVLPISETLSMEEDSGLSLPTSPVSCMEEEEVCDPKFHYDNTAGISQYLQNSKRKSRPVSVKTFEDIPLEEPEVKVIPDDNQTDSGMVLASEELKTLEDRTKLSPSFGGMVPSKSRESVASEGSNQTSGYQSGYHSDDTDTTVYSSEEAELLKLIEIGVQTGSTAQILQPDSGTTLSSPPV
T2 sequence (P00915 whole entry): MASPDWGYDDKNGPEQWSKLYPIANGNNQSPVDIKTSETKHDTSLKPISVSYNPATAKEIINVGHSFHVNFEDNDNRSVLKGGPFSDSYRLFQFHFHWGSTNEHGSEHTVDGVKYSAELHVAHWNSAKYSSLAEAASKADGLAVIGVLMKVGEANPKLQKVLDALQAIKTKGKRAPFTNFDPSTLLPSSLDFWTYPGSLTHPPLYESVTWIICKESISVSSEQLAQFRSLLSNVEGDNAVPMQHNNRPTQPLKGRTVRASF
Protocol for CA II: Carbonic anhydrase I, II, and IX inhibition studies
The CO2 hydration actions catalyzed by carbonic anhydrase for targeted compounds herein
presented were measured using an Applied Photophysics stopped-flow instrument. The enzymes
are recombinant proteins that have been created in a lab. Following the initial rates of the CA-
catalyzed CO2 hydration reaction for a period of 10-100 s, phenol red (at a concentration of 0.2
mM) was used as an indicator, working at an absorbance maximum of 557 nm, with 20 mM
Hepes (pH 7.5) as a buffer, and 20 mM Na2SO4 (to maintain constant the ionic strength). The
CO2 concentrations used to determine the kinetic parameters and inhibition constants ranged
from 1.7 to 17 mM. At least six traces of the first 5-10% of the reaction were utilized to
determine the beginning velocity for each inhibitor. In the same way, the uncatalyzed rates were calculated and deducted from the total measured rates. Stock inhibitor solutions (0.1 mM) were
produced in distilled-deionized water, followed by dilutions with the assay buffer up to 0.01 nM.
Prior to the experiment, the inhibitor and enzyme solutions were preincubated together for 15
minutes at room temperature to allow for the development of the E-I complex. The inhibition
constants were calculated using non-linear least-squares methods using the ChengPrusoff
equation in PRISM 3. They reflect the average of at least three individual measurements 6, 7.
Protocol for VEGFR-2: HTRF (homogeneous time-resolved fluorescence) assay method was used to conduct inhibitory action of all newly synthesized compounds against VEGFR-2. VEGFR-2 kinase (BioAssay Systems - Kinase Assay Kit, EKIN-400) and its substrate were incubated for 5 min in a buffer solution with newly synthesized compounds/Sorafnib to initiate the enzymatic reaction, then ATP was added to the reaction mixture. Hold under 30 min at room temperature. The reaction was stopped by adding

The inhibition is the relative decrease from the control value, in per cent. In general, melting point refers to the temperature, or range, at which the solid turns liquid. On to `COc1ccc(/C(C)=N/N=C2/C(=O)Nc3ccccc32)cc1S(N)(=O)=O` [Compound 6a], for which the melting point was in the range of 250 to 252 °C. Moreover, in data set [1], the inhibition at 10 µM is not above 20%.

In the case of `COc1ccc(/C(C)=N/N=C2/C(=O)Nc3ccc(F)cc32)cc1S(N)(=O)=O` [Compound 6b], the melting point was 262 to 264 °C.

The compound `COc1ccc(/C(C)=N/N=C2/C(=O)Nc3c(F)cccc32)cc1S(N)(=O)=O` [Compound 6c] yielded a melting point of 266 to 268 °C. The inhibition at 10 µM in data set [1] is not above 20%.

Compound `COc1ccc(/C(C)=N/N=C2/C(=O)Nc3ccc(Cl)cc32)cc1S(N)(=O)=O` [Compound 6d] showed a melting point of 268 to 270 °C.

`COc1ccc(/C(C)=N/N=C2/C(=O)Nc3c(Cl)cccc32)cc1S(N)(=O)=O` [Compound 6e] showed a melting point of 278 to 280 °C.

The term IC50 denotes the concentration at which inhibition is half-maximal. The term Ki denotes a dissociation constant, usually derived from enzyme kinetics or from competition with a known ligand. `COc1ccc(/C(C)=N/N=C2/C(=O)Nc3ccc(Br)cc32)cc1S(N)(=O)=O` [Compound 6f] yielded a melting point of 274 to 276 °C. Also, the inhibition at 10 µM with T47D cells [2] turned out to be 54%. In addition, on VEGFR-2, the inhibition at 10 µM is 86.8% and the concentration for half-maximal inhibition (IC50) came to 0.0567 ± 0.00072 µM. The compound also gave a Ki on CA I of more than 100 µM. On CA IX [3], the Ki is more than 100 µM. Moreover, the Ki at CA II was more than 100 µM. Besides, in the data set on T47D cells [4], the half-inhibitory concentration (IC50) came out at 5.45 ± 0.24 µM.

`COc1ccc(/C(C)=N/N=C2/C(=O)Nc3cc(Br)ccc32)cc1S(N)(=O)=O` [Compound 6g] yielded a melting point of 276 to 278 °C.

`COc1ccc2c(c1)/C(=N\N=C(/C)c1ccc(OC)c(S(N)(=O)=O)c1)C(=O)N2` [Compound 6h] returned a melting point of 264 to 266 °C.

Compound `COc1ccc(/C(C)=N/N=C2/C(=O)Nc3ccc(OC(F)(F)F)cc32)cc1S(N)(=O)=O` [Compound 6i] had a melting point of 270 to 272 °C. Further, the inhibition at 10 µM with T47D cells [2] turned out to be 32%. In addition, the 50% inhibitory concentration (IC50) in the data set with T47D cells [4] stood at 24.1 ± 1.08 µM.

Turning to `COc1ccc(/C(C)=N/N=C2/C(=O)N(C)c3ccccc32)cc1S(N)(=O)=O` [Compound 11a], the inhibition at 10 µM in data set [1] is not above 20%.

On to `COc1ccc(/C(C)=N/N=C2/C(=O)N(C)c3ccc(Cl)cc32)cc1S(N)(=O)=O` [Compound 11b], for which the melting point was in the range of 248 to 250 °C. Besides, the inhibition at 10 µM in the data set with T47D cells [2] is 55%. Besides, at VEGFR-2, testing at 10 µM gave an inhibition of 72.7% and the half-inhibitory concentration (IC50) is 0.0634 ± 0.00072 µM. Also, the Ki on CA I was more than 100 µM. In addition, on CA IX [3], the Ki is more than 100 µM. Also, in the data set with T47D cells [5], the “%G0/G1” value is 68.42% and the “%Sub-G1” value was 45.88%. In the data set with T47D cells [6], the Early apoptosis is recorded as 31.0%, the Late apoptosis is listed as 12.07% and the “increase of overall apoptosis in comparison to the control” value was “roughly 19 times”. At CA II, this compound had an inhibition constant (Ki) of more than 100 µM. Further, in the data set with T47D cells [4], the half-inhibitory concentration (IC50) is 1.83 ± 0.08 µM.

`COc1ccc(/C(C)=N/N=C2/C(=O)N(C)c3ccc(Br)cc32)cc1S(N)(=O)=O` [Compound 11c] came in with a melting point of 263 to 265 °C. For the same compound, the inhibition at 10 µM in the data set with T47D cells [2] is 52%. In addition, at VEGFR-2, at 10 µM the inhibition was 92% and the concentration for half-maximal inhibition (IC50) is 0.0301 ± 0.00031 µM. Further, on CA I, the Ki was more than 100 µM. In addition, the Ki at CA IX [3] is more than 100 µM. The compound further had a Ki on CA II of more than 100 µM. Besides, the IC50 in the data set with T47D cells [4] was found to be 10.4 ± 0.47 µM.

For `COc1ccc(/C(C)=N/N=C2/C(=O)N(Cc3ccccc3)c3ccccc32)cc1S(N)(=O)=O` [Compound 12a], the melting point was 235 to 237 °C. Moreover, in the data set on T47D cells [2], the inhibition at 10 µM was determined as 57%. Besides, the concentration for half-maximal inhibition (IC50) in the data set on T47D cells [4] was found to be 11.6 ± 0.52 µM.

In turn, `COc1ccc(/C(C)=N/N=C2/C(=O)N(Cc3ccccc3)c3ccc(Cl)cc32)cc1S(N)(=O)=O` [Compound 12b] displayed a melting point of 245 to 247 °C. In addition, the inhibition at 10 µM with T47D cells [2] worked out at 28%. At VEGFR-2, the inhibition at 10 µM stood at 97.2% and the half-inhibitory concentration (IC50) turned out to be 0.0231 ± 0.00041 µM. The compound also yielded an inhibition constant (Ki) at CA I of more than 100 µM. This compound displayed an inhibition constant Ki at CA IX [3] of more than 100 µM. In addition, in the data set with T47D cells [5], the “%S” value was determined as 41.05% and the “%Sub-G1” value was 39.15%. Also, in the data set with T47D cells [6], the Early apoptosis was determined as 23.5%, the Late apoptosis turned out to be 9.4% and the “increase of overall apoptosis in comparison to the control” value is approximately 16.2 times. At CA II, this compound displayed a Ki of more than 100 µM. For the same compound, the IC50 in the data set on T47D cells [4] amounted to 3.59 ± 0.16 µM.

`COc1ccc(/C(C)=N/N=C2/C(=O)N(Cc3ccccc3)c3ccc(Br)cc32)cc1S(N)(=O)=O` [Compound 12c] registered a melting point of 260 to 262 °C. For the same compound, the inhibition at 10 µM with T47D cells [2] was 39%. The IC50 with T47D cells [4] was 16.5 ± 0.74 µM.

As to `COc1cccc2c1C(=O)c1c(O)c3c(c(O)c1C2=O)C[C@@](O)(C(=O)CO)C[C@@H]3O[C@H]1C[C@H](N)[C@H](O)[C@H](C)O1` [Doxorubicin, reference compound], the 50% inhibitory concentration (IC50) in the data set on T47D cells [4] stood at 2.26 ± 0.1 µM.

As for `CN1C(=O)/C(=N\c2ccc(NC(=O)Nc3ccc(S(N)(=O)=O)cc3)cc2)c2cc(Cl)ccc21` [compound II], the inhibition constant Ki at CA IX [7] was 0.0052 µM.

Values taken from paper PMC10134960, “Discovery of sulfonamide-tethered isatin derivatives as novel anticancer agents and VEGFR-2 inhibitors” (Journal of Enzyme Inhibition and Medicinal Chemistry, 2023).
